{
  "source": "paper PMC4729767",
  "about": "(Theranostics, 2016)",
  "key": {"[1]": {"system": "intracranial C6 glioma bearing mice", "assay": "Anti-glioma efficacy", "assay_type": "in vivo, Balb/c mice", "details": "versus Saline; PTX 3 mg/kg i.v. x 6; n = 9"}, "[2]": {"assay": "In vitro drug release by dialysis", "assay_type": "physicochemical", "details": "dialysis (MWCO 8-14 kDa), PBS pH 7.4 with 0.1% Tween 80, 37 °C, 48 h, HPLC, n = 3"}, "C6 cells": {"system": "C6 cells", "assay": "Annexin V-FITC/PI apoptosis study", "assay_type": "cell-based, murine", "details": "PTX 1 μg/mL, 24 h, flow cytometer, n = 3, mean ± SD"}},
  "data": [
    {"molecule": "CC(=O)O[C@H]1C(=O)[C@@]2(C)[C@H]([C@H](OC(=O)c3ccccc3)[C@]3(O)C[C@H](OC(=O)[C@H](O)[C@@H](NC(=O)c4ccccc4)c4ccccc4)C(C)=C1C3(C)C)[C@]1(OC(C)=O)CO[C@@H]1C[C@@H]2O", "note": "[free PTX, Paclitaxel]", "values": [
      {"measurement": "Increased survival time", "setting": "[1]", "value": 53, "unit": "%"},
      {"measurement": "PTX release behavior", "setting": "[2]", "value": "≤ 8", "unit": "h"},
      {"measurement": "apoptosis and necrosis rates of C6 cells", "setting": "C6 cells", "value": "75.65 ± 1.77", "unit": "%"}
    ]}
  ]
}
